Where a name gives a salt, the structure may show the parent alone.
Tested on: Acinetobacter baumannii ATCC17978
Assay: Antimicrobial susceptibility testing: 90% growth inhibitory concentration (IC90) determination, Iso-Sensitest broth, OD 600 nm
Type: cell-based
Conditions: Acinetobacter baumannii, ATCC17978, 16 h, 90% growth inhibitory concentration, Acinetobacter baumannii ATCC17978, Iso-Sensitest broth, OD 600 nm over 16 h; read-out: ATCC 17978 IC90
Outline: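 Growth of bacteria (~5×10^5 CFU/ml, Iso-Sensitest medium, 35±2 °C) was followed by OD at 600 nm at 20-min intervals over 16 h against a 10-point twofold compound series (e.g. 50–0.097 μM final). Concentration giving 90% inhibition in log phase was reported.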

Compound | IC90 [nM]
COc1ccc(-c2cnc3c(Nc4ccc(C(=O)NCCCOCC(=O)O)c(C)c4)nccn23)cc1F [Example 157, 2-[3-[[4-[[3-(3-fluoro-4-methoxyphenyl)imidazo[1,2-a]pyrazin-8-yl]amino]-2-methylbenzoyl]amino]propoxy] acetic acid] | 8100
Cc1cc(Nc2nccn3c(-c4ccc(OC(F)F)cc4)cnc23)ccc1C(=O)NCCOCC(=O)NCc1nnn[nH]1 [Example 158, 4-[[3-[4-(difluoro-methoxy)phenyl]imidazo [1,2-a]pyrazin-8-yl]amino]-2-methyl-N-[2-[2-oxo-2-(1H-tetrazol-5-ylmethylamino)ethoxy]ethyl] benzamide] | 8900
CCc1cc(Nc2nccn3c(-c4ccc(Cl)c(F)c4F)cnc23)ccc1C(=O)NCCSCCN [Example 159, N-[2-(2-aminoethyl-sulfanyl)ethyl]-4-[[3-(4-chloro-2,3-difluorophenyl)imidazo[1,2-a]pyrazin-8-yl]amino]-2-ethylbenzamide] | 210
Cc1cc(Nc2nccn3c(-c4ccc(OCC#CCN)c(F)c4F)cnc23)ccc1C(=O)NCCOCCN [Example 160, 4-[[3-[4-(4-aminobut-2-ynoxy)-2,3-difluorophenyl]imidazo[1,2-a]pyrazin-8-yl]amino]-N-[2-(2-aminoethoxy)ethyl]-2-methylbenzamide] | 430
CNCCCCNC(=O)c1ccc(Nc2nccn3c(-c4ccc(OC)c(F)c4)cnc23)cc1C [Example 161, 4-[[3-(3-fluoro-4-methoxyphenyl)imidazo[1,2-a]pyrazin-8-yl]amino]-2-methyl-N-[4-(methyl-amino)butyl] benzamide; hydrochloride] | 350
CN(CCOCCN1CCNCC1)C(=O)c1ccc(Nc2nccn3c(-c4ccc(OC(F)F)cc4)cnc23)cc1Cl [Example 162, 2-chloro-4-[[3-[4-(difluoromethoxy)phenyl]imidazo [1,2-a]pyrazin-8-yl]amino]-N-methyl-N-[2-(2-piperazin-1-yl-ethoxy)ethyl] benzamide; hydrochloride] | 540
COc1ccc(-c2cnc3c(Nc4ccc(C(=O)N(C)CCOCCN5CCNCC5)c(Cl)c4)nccn23)cc1F [Example 163, 2-chloro-4-[[3-(3-fluoro-4-methoxyphenyl)imidazo[1,2-a]pyrazin-8-yl]amino]-N-methyl-N-[2-(2-piperazin-1-ylethoxy)ethyl] benzamide; hydrochloride] | 570
Cc1cc(Nc2nccn3c(-c4ccc(OC(F)F)cc4)cnc23)ccc1C(=O)NCCOCCN1CCOC(CN)C1 (centres unmarked) [Example 164, N-[2-[2-[2-(aminomethyl)morpholin-4-yl]ethoxy]ethyl]-4-[[3-[4-(difluoro-methoxy)phenyl]imidazo [1,2-a]pyrazin-8-yl]amino]-2-methylbenzamide; hydrochloride] | 970
COc1ccc(-c2cnc3c(Nc4ccc(C(=O)N(CCC#N)CCCCNCCC#N)c(C)c4)nccn23)cc1F [Example 165, N-(2-cyanoethyl)-N-[4-(2-cyanoethyl-amino)butyl]-4-[[3-(3-fluoro-4-methoxyphenyl)imidazo[1,2-a]pyrazin-8-yl]amino]-2-methylbenzamide] | 1500
COc1ccc(-c2cnc3c(Nc4ccc(C(=O)N(C)CCOCCN5CCNC(C(=O)O)C5)c(C)c4)nccn23)cc1F (centres unmarked) [Example 166, 4-[2-[2-[[4-[[3-(3-fluoro-4-methoxyphenyl)imidazo[1,2-a]pyrazin-8-yl]amino]-2-methylbenzoyl]-methylamino]ethoxy]ethyl]piperazine-2-carboxylic acid; hydrochloride] | 4700
COc1ccc(-c2cnc3c(Nc4ccc(C(=O)NCCOCCN)c(Br)c4)nccn23)c(F)c1F [Example 167, N-[2-(2-aminoethoxy)ethyl]-2-bromo-4-[[3-(2,3-difluoro-4-methoxyphenyl)imidazo[1,2-a]pyrazin-8-yl]amino] benzamide; formic acid] | 52
CCc1cc(Nc2nccn3c(-c4ccc(OC)c(F)c4F)cnc23)ccc1C(=O)NCCN(C)CCN [Example 168, N-[2-[2-aminoethyl (methyl)amino]ethyl]-4-[[3-(2,3-difluoro-4-methoxyphenyl)imidazo[1,2-a]pyrazin-8-yl]amino]-2-ethylbenzamide; hydrochloride] | 120
CCc1cc(Nc2nccn3c(-c4ccc(OC)c(F)c4F)cnc23)ccc1C(=O)NCCOCCN(C)C [Example 169, 4-[[3-(2,3-difluoro-4-methoxyphenyl)imidazo[1,2-a]pyrazin-8-yl]amino]-N-[2-[2-(dimethylamino)ethoxy]ethyl]-2-ethylbenzamide] | 130
CCc1cc(Nc2nccn3c(-c4ccc(OC(F)F)c(F)c4F)cnc23)ccc1C(=O)NCCNCCN [Example 170, N-[2-(2-aminoethylamino)ethyl]-4-[[3-[4-(difluoro-methoxy)-2,3-difluorophenyl]imidazo[1,2-a]pyrazin-8-yl]amino]-2-ethylbenzamide; hydrochloride] | 280
COc1ccc(-c2cnc3c(Nc4ccc5c(c4)CCN(CCOCCN)C5=O)nccn23)c(F)c1F [Example 171, 2-[2-(2-aminoethoxy)ethyl]-6-[[3-(2,3-difluoro-4-methoxyphenyl)imidazo[1,2-a]pyrazin-8-yl]amino]-3,4-dihydroiso-quinolin-1-one;2,2,2-trifluoroacetic acid] | 290
CCc1cc(Nc2nccn3c(-c4ccc(OCC(=O)OC)c(F)c4F)cnc23)ccc1C(=O)NCCOCCN [Example 172, formic acid; methyl 2-[4-[8-[4-[2-(2-aminoethoxy)ethylcarbamoyl]-3-ethylanilino]imidazo[1,2-a]pyrazin-3-yl]-2,3-difluorophenoxy] acetate] | 310
COc1ccc(-c2cnc3c(Nc4ccc(C(=O)NCCOCCN)c(CC(F)F)c4)nccn23)cc1F [Example 173, N-[2-(2-aminoethoxy)ethyl]-2-(2,2-difluoroethyl)-4-[[3-(3-fluoro-4-methoxyphenyl)imidazo[1,2-a]pyrazin-8-yl]amino] benzamide; formic acid] | 370
CCc1cc(Nc2nccn3c(-c4ccc(OC(F)F)c(F)c4F)cnc23)ccc1C(=O)NCCNCCO [Example 174, 4-[[3-[4-(difluoromethoxy)-2,3-difluorophenyl]imidazo[1,2-a]pyrazin-8-yl]amino]-2-ethyl-N-[2-(2-hydroxy-ethylamino)ethyl]benzamide; hydrochloride] | 590
CN(CCOCCN1CCC(C(=O)O)CC1)C(=O)c1ccc(Nc2nccn3c(-c4ccc(OCC#N)c(F)c4F)cnc23)cc1Cl [Example 175, 1-[2-[2-[[2-chloro-4-[[3-[4-(cyanomethoxy)-2,3-difluorophenyl]imidazo[1,2-a]pyrazin-8-yl]amino]benzoyl]-methylamino]ethoxy]ethyl] piperidine-4-carboxylic acid; formic acid] | 1100
CN(CCOCCN1CCCC(C(=O)O)C1)C(=O)c1ccc(Nc2nccn3c(-c4ccc(OCC#N)c(F)c4F)cnc23)cc1Cl (centres unmarked) [Example 176, 1-[2-[2-[[2-chloro-4-[[3-[4-(cyanomethoxy)-2,3-difluorophenyl]imidazo[1,2-a]pyrazin-8-yl]amino]benzoyl]-methylamino]ethoxy]ethyl] piperidine-3-carboxylic acid; formic acid] | 1200
